Laboratory results as given in the supplement of paper PMC10307832.

Tests used:
Test in all cases: relative viability (nuclei count vs DMSO), 5 days (fraction); higher = more cells survive
[1] = compound: CC(C)(C)c1nc(-c2cccc(NS(=O)(=O)c3c(F)cccc3F)c2F)c(-c2ccnc(N)n2)s1 [Dabrafenib] + Nc1ncn([C@H]2C[C@H](O)[C@@H](CO)O2)c(=O)n1 [Decitabine] (partner 2 µM)
Outline: (§1)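 Nuclei were stained with Hoechst during a one-step fixation (final 0.05% Triton X-100, 1% formaldehyde, 1 ug/ml Hoechst) carried out 5 days after dosing, then counted on 4× images. The cells, lung cancer lines in 1536-well plates, had been dosed by pin tool the day after seeding with one drug alone or a fixed anchor-drug dose plus five library-drug doses (not always all listed) in √10 steps. Relative viability is the nuclei count in treated wells divided by that in vehicle wells, and each value is the median of duplicate plates.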

[2] = compound: CC(C)(C)c1nc(-c2cccc(NS(=O)(=O)c3c(F)cccc3F)c2F)c(-c2ccnc(N)n2)s1 [Dabrafenib] + N=C(N)NC(=N)NCCc1ccccc1 [Phenformin] (partner 250 µM)
Outline: as §1

[3] = compound: CC(C)(C)c1nc(-c2cccc(NS(=O)(=O)c3c(F)cccc3F)c2F)c(-c2ccnc(N)n2)s1 [Dabrafenib] + CC(=O)Nc1cccc(-n2c(=O)n(C3CC3)c(=O)c3c(Nc4ccc(I)cc4F)n(C)c(=O)c(C)c32)c1 [Trametinib] (partner 0.02 µM)
Outline: as §1

[4] = compound: NC(=O)c1ccc(N(C(N)=O)c2c(F)cccc2F)nc1-c1ccc(F)cc1F [VX-702] + CC1(C)CCC(c2ccc(Cl)cc2)=C(CN2CCN(c3ccc(C(=O)NS(=O)(=O)c4ccc(N[C@H](CCN5CCOCC5)CSc5ccccc5)c(S(=O)(=O)C(F)(F)F)c4)cc3)CC2)C1 [Navitoclax] (partner 0.5 µM)
Outline: as §1

Cell Line	relative viability ([1]; first compound 0.003 µM)	relative viability ([1]; first compound 0.009487 µM)	relative viability ([1]; first compound 0.03 µM)	relative viability ([1]; first compound 0.09487 µM)	relative viability ([1]; first compound 0.3 µM)	relative viability ([2]; first compound 0.003 µM)	relative viability ([2]; first compound 0.009487 µM)	relative viability ([2]; first compound 0.03 µM)	relative viability ([2]; first compound 0.09487 µM)	relative viability ([2]; first compound 0.3 µM)	relative viability ([3]; first compound 0.003 µM)	relative viability ([3]; first compound 0.009487 µM)	relative viability ([3]; first compound 0.03 µM)	relative viability ([3]; first compound 0.09487 µM)	relative viability ([3]; first compound 0.3 µM)	relative viability ([4]; first compound 0.02 µM)	relative viability ([4]; first compound 0.2 µM)	relative viability ([4]; first compound 0.6325 µM)	relative viability ([4]; first compound 2 µM)
201T	0.853	0.825	0.731	0.846	0.769	0.423	0.428	0.372	0.41	0.465	0.723	0.744	0.654	0.685	0.751	1.17	1.22	1.23	1.24
A549	–	0.277	0.201	0.212	0.0722	–	0.18	0.191	0.173	0.151	–	–	–	–	–	1.25	1.23	1.28	1.42
A-427	0.569	0.562	0.569	0.551	0.504	–	0.292	0.273	0.276	0.378	0.759	0.737	0.745	0.65	0.785	0.877	0.919	0.905	0.962
ABC-1	–	1.07	1.15	1.28	1.54	0.214	0.233	0.254	0.232	0.209	–	–	–	–	–	–	–	–	–
BEN	–	0.865	–	0.721	0.656	–	0.257	–	0.272	0.242	–	1.07	–	0.842	1.11	0.0513	0.104	0.0606	0.0662
CAL-12T	–	–	–	–	–	0.584	0.51	0.601	0.572	0.677	0.327	0.319	0.382	0.334	0.445	1.22	1.18	1.3	1.35
COR-L23	0.475	0.47	0.41	0.432	0.279	0.466	0.425	0.431	0.396	0.431	0.528	0.432	0.626	0.512	0.656	0.968	0.979	1.18	1.27
COR-L 105	0.6	0.691	0.666	0.681	0.675	0.497	0.507	0.417	0.492	0.547	0.418	0.478	0.46	0.479	0.521	0.82	0.61	0.851	1.08
Calu-6	–	–	–	–	–	–	–	–	–	–	–	–	–	–	–	0.927	0.811	1.01	1.01
ChaGo-K-1	0.456	0.508	0.552	0.522	0.402	0.315	0.446	0.472	0.418	0.556	0.884	0.929	0.933	0.875	0.905	0.991	0.403	0.898	1.4
EBC-1	–	–	–	–	–	–	–	–	–	–	–	–	–	–	–	0.441	0.413	0.337	0.389
EKVX	–	0.38	0.29	0.44	0.353	0.147	0.227	0.187	0.196	0.236	–	0.367	0.304	0.434	0.462	0.96	0.932	0.882	0.986
EMC-BAC-2	–	0.959	0.974	0.933	0.905	0.518	0.563	0.364	0.418	0.548	–	0.827	1	1.03	1.2	1.19	1.13	1.18	1.24
EPLC-272H	–	0.393	0.367	0.365	0.442	0.211	0.331	0.406	0.267	0.332	–	0.262	0.312	0.349	0.329	1.23	1.08	1.05	1.17
H3255	0.539	0.704	0.585	0.625	0.649	0.345	0.444	0.338	0.391	0.383	0.641	0.584	0.668	0.639	0.789	0.508	0.446	0.501	0.557
HARA	–	0.537	0.595	0.539	0.499	0.448	0.46	–	0.364	0.511	–	0.805	0.832	0.721	1	1.08	1.14	1.05	1.09
HCC-15	0.586	0.677	0.665	0.669	0.636	0.461	0.461	0.528	0.401	0.382	0.354	0.437	0.378	0.374	0.506	0.691	0.648	0.656	0.699
